Test results published in article PMC9000738, “Diterpenoid Alkaloids Isolated from Delphinium brunonianum and Their Inhibitory Effects on Hepatocytes Lipid Accumulation” (Molecules, 2022).
Where two headings read alike, the source gives them in different places.

How the values were obtained:
FFA-induced BRL cells [1] = type: cell-based, rat; conditions: for TG level (TG secretion, lipid accumulation): 10 μM, 24 h, vs. model group; for TG level (TG secretion, lipid accumulation) / TC level / TG level / ALT level / AST level: 0.5 mM FFA-induced BRL cells; for TC level / TG level / ALT level / AST level: 1, 5 or 10 µM; for ALT level / AST level: medium; for inhibitory effects on hepatocytes lipid accumulation: FFA-induced BRL cells, 1, 5 and 10 µM
Method: We selected FFA-induced BRL cells (oleate and palmitate ratio was 2:1) to establish a cellular NAFLD model, which is a widely used method by researchers for studying diseases related to hepatocytes lipid accumulation. The TG secretion was measured to preliminarily evaluate the inhibitory effect on lipid accumulation of 15 isolated alkaloid compounds. […] Compounds 1–15 were tested at a concentration of 10 μM in FFA-induced BRL cells to determine their inhibitory effects on hepatocytes TG secretion (Figure 5). Atorvastatin calcium (ATC) is a statin cholesterol-lowering drug and widely used in the clinical treatment of hyperlipidemia and NAFLD, etc.. Therefore, we used atorvastatin calcium (ATC, 10 µM) as a positive control drug.
BRL cells were grown in 24-well plates until 70–80% confluence. Subsequently, 0.5 mM FFA (oleate and palmitate in a final ratio of 2:1) was applied for 24 h to establish an in vitro model of hepatocytes lipid accumulation in the model group, treated with 0.5 mM FFA combination with 1, 5, or 10 µM isolated compounds for 24 h in alkaloids groups. A portion of 1% bovine serum albumin (BSA) was added in BRL cells of the control group. Then, the medium of each group was collected for determination of ALT and AST levels by commercial kits. After removing the medium, 200 µL of 0.25% trypsin was added to digest the cells in 37 °C for 2 min. Then, 500 µL of DMEM that contained 10% fetal bovine serum (FBS) was added to stop digesting. Cells suspension was centrifuged at 800 r/min for 3 min. After adding 200 µL of ethanol, cells were collected and crushed by ultrasonic cell disruptor at 4 °C. Part of the cell fragmentation solution was used for the determination of cell protein content, the other part was used to determine TG and TC levels by commercial kits according to the manufacturer’s instruction.

FFA-induced HepG2 cells [2] = assay: Oil red O staining in FFA-induced HepG2 cells; type: cell-based; conditions: 10 µM, 1 mM FFA-induced HepG2 cells
Method: Figure S79. Oil red O staining of lipid droplets and quantitative analysis in HepG2 cells treated with or without 1 mM FFA mixed compounds 4, 5, 7, 8, and 12 (10 µM), 400 ×; The images shown about quantitative analysis s of red stained cells are representatives of 3 replicates of each. The values are presented as mean ± SEM. ### p < 0.001, vs. the control group; * p < 0.05, ** p < 0.01, vs. the model group. […]

FFA-induced HepG2 cells [3] = assay: TG secretion assay in FFA-induced HepG2 cells; type: cell-based; conditions: 10 µM, 1 mM FFA-induced HepG2 cells
Method: Figure S78. Effects of compounds (4, 5, 7, 8, and 12) on TG level in FFA-induced HepG2 cells. HepG2 cells were treated with a mixture of 1 mM FFA in the absence o r presence of compounds (4, 5, 7, 8, and 12) at the concentration of 10 µM. The values are presented as mean ± SEM of six independent experiments. ### p < 0.001, vs. the control group; * p < 0.05, ** p < 0.01, vs. the model group. […]

FFA-induced BRL cells [4] = assay: Oil red O staining of lipid droplets and quantitative analysis in FFA-induced BRL cells; type: cell-based, rat; conditions: 10 µM, 0.5 mM FFA-induced BRL cells; for fold change of red-stained cell area (quantitative analysis of lipid accumulation): ImageJ, p < 0.001 vs. model group; for lipid accumulation by oil red O staining: vs. model group
Method: Combined with the oil red O staining and quantitative analysis assay, the effect of reducing lipid accumulation of compounds 4, 5, 7, 8, and 12 was performed in FFA-induced BRL cells. […] Quantitative analysis of lipid accumulation was also analyzed by ImageJ 1.8.0 software by calculating the area of red-stained cells (Figure 7C).
BRL cells were plated in 96-well plates until reaching 70–80% confluence and treated with 0.5 mM FFA mixture and the tested compounds for 24 h. Controls were incubated for the same period in complete medium.
After 24 h of incubation, the cells were fixed with 5% formalin solution for 30 min and then incubated with oil red O working solution for 15 min at room temperature. After that, the cells were washed once with 60% isopropanol and three times with water. The nuclei were stained with hematoxylin solution for 2 min at room temperature. Then, the operation of oil red O staining was referred to the previous research. Finally, the red oil droplets were observed using an optical microscope.

BRL cells = assay: Cell viability by CCK-8 assay in BRL cells; type: cell-based; conditions: Rattus norvegicus
Method: The cell viability (%) of the isolated diterpenoid alkaloids in the concentration range of 1–500 μM and the time-effectiveness of them for 24 h and 48 h were evaluated using CCK-8 assay (Figure 4). […] The IC50 values of 15 compounds and positive drug were calculated by SPSS 23.0 software. […] Therefore, through the entire experiments, the maximum concentration of tested diterpenoid alkaloids was limited to 10 μM, a concentration about one-tenth to one-fiftieth of IC50 of them. In addition, optimum dosage of modeling agent (FFA) was also selected as the concentration of 0.5 mM through CCK-8 assay (Figure S77).
Buffalo rat liver (BRL) cells were obtained from the Cell Bank, Committee for Typical Culture Preservation, Chinese Academy of Sciences. BRL cells were cultured in DMEM (containing 10% fetal bovine serum and 1% penicillin/streptomycin) under humidified 5% CO2 (v/v) atmosphere at 37 °C. To determine the cell viability of compounds 1–15, the CCK-8 assay was performed. The fifteen isolated compounds were dissolved in DMSO and diluted 1:1000 in culture medium, respectively. Cells were seeded in 96-well plates (6 × 10^3 cells per well) for 24 h incubation and then treatment with different concentrations (1, 10, 20, 50, 100, 200, and 500 µM) of each compound for 24 h or 48 h, respectively. CCK-8 solution (10% of the total solution) was added to each well, further incubated for 1 h at 37 °C. The absorbance was measured at 450 nm using a Multimode Microplate Reader.

[5] = BRL cells, CCK-8 assay, concentration range 1–500 μM, incubation time (24 h or 48 h) not stated, read-out: IC50

SMILES: CCN1CC2(COC)CCC(OC)C34C5CC6C(OC)CC7(OCOC7(C(OC)C23)C14)C5C6O (stereo not shown) [Compound 5, delbruline]
- TG level (TG secretion, lipid accumulation) (FFA-induced BRL cells [1]): better than that of the positive control drug
- TC level (FFA-induced BRL cells [1]): ameliorated
- TG level (FFA-induced BRL cells [1]): ameliorated
- ALT level (FFA-induced BRL cells [1]): ameliorated
- AST level (FFA-induced BRL cells [1]): ameliorated
- inhibitory effects on hepatocytes lipid accumulation (FFA-induced BRL cells [1]): strong inhibitory effects on hepatocytes lipid accumulation in a dose-dependent manner
- lipid accumulation by oil red O evaluation (FFA-induced HepG2 cells [2]): good inhibitory effects on lipid accumulation
- lipid accumulation by TG secretion assay (FFA-induced HepG2 cells [3]): good inhibitory effects on lipid accumulation
- fold change of red-stained cell area (quantitative analysis of lipid accumulation) (FFA-induced BRL cells [4]): less than the model group
- lipid accumulation by oil red O staining (FFA-induced BRL cells [4]): significantly reduce lipid accumulation
- IC50 (BRL cells; [5]): > 500 µM

SMILES: CCN1C[C@]2(C)CC[C@H](OC)[C@@]34C1[C@@]1(OCO[C@@]15C[C@H](OC)[C@H]1C[C@@H]3[C@@H]5[C@H]1O)[C@@H](O)[C@H]24 [Compound 6, delpheline]
- IC50 (BRL cells): > 500 µM

SMILES: CCN1C[C@]2(CO)CC[C@H](OC)[C@@]34[C@@H]5C[C@H]6[C@H](OC)[C@@H]5[C@](O)(C[C@@H]6OC)[C@](O)([C@@H](OC)[C@H]23)[C@@H]14 [Compound 7, lycoctonine]
- TG level (TG secretion, lipid accumulation) (FFA-induced BRL cells [1]): better than that of the positive control drug
- TC level (FFA-induced BRL cells [1]): ameliorated
- TG level (FFA-induced BRL cells [1]): ameliorated
- ALT level (FFA-induced BRL cells [1]): ameliorated
- AST level (FFA-induced BRL cells [1]): ameliorated
- inhibitory effects on hepatocytes lipid accumulation (FFA-induced BRL cells [1]): strong inhibitory effects on hepatocytes lipid accumulation in a dose-dependent manner
- lipid accumulation by oil red O evaluation (FFA-induced HepG2 cells [2]): good inhibitory effects on lipid accumulation
- lipid accumulation by TG secretion assay (FFA-induced HepG2 cells [3]): good inhibitory effects on lipid accumulation
- fold change of red-stained cell area (quantitative analysis of lipid accumulation) (FFA-induced BRL cells [4]): less than the model group
- lipid accumulation by oil red O staining (FFA-induced BRL cells [4]): significantly reduce lipid accumulation
- IC50 (BRL cells; [5]): > 500 µM

SMILES: CCN1CC2(COC)CCC(O)C34C5CC6C(OC)CC7(OCOC7(C(OC)C23)C14)C5C6O (stereo not shown) [Compound 8, delbrunine]
- TG level (TG secretion, lipid accumulation) (FFA-induced BRL cells [1]): better than that of the positive control drug
- TC level (FFA-induced BRL cells [1]): ameliorated
- TG level (FFA-induced BRL cells [1]): ameliorated
- ALT level (FFA-induced BRL cells [1]): ameliorated
- AST level (FFA-induced BRL cells [1]): ameliorated
- inhibitory effects on hepatocytes lipid accumulation (FFA-induced BRL cells [1]): strong inhibitory effects on hepatocytes lipid accumulation in a dose-dependent manner
- lipid accumulation by oil red O evaluation (FFA-induced HepG2 cells [2]): good inhibitory effects on lipid accumulation
- lipid accumulation by TG secretion assay (FFA-induced HepG2 cells [3]): good inhibitory effects on lipid accumulation
- fold change of red-stained cell area (quantitative analysis of lipid accumulation) (FFA-induced BRL cells [4]): less than the model group
- lipid accumulation by oil red O staining (FFA-induced BRL cells [4]): significantly reduce lipid accumulation
- IC50 (BRL cells; [5]): 408 µM

SMILES: CCN1CC2(COC)CCC(O)C34C5CC6C(OC)CC(O)(C5C6O)C(O)(C(OC)C23)C14 (stereo not shown) [Compound 9, delcosine]
- IC50 (BRL cells): > 500 µM

SMILES: CCN1CC2(COC)CCC(O)C34C5CC6C(OC)CC7(OCOC7(C(O)C23)C14)C5C6OC (stereo not shown) [Compound 10, uraphine]
- IC50 (BRL cells): > 500 µM

SMILES: CCN1C[C@]2(COC(=O)c3ccccc3N)CC[C@H](OC)[C@]34C1[C@](O)([C@@H](OC)[C@H]23)[C@@]1(O)C[C@H](OC)[C@H]2C[C@@H]4[C@@H]1[C@H]2OC [Compound 11, anthranoyllycoctonine]
- IC50 (BRL cells; [5]): 300 to 500 µM

SMILES: CCN1CC2(COC)CCC(OC)C34C5CC6C(OC)CC(O)(C5C6O)C(O)(C(OC)C23)C14 (stereo not shown) [Compound 13, browniine]
- IC50 (BRL cells): > 500 µM

SMILES: CCN1CC2(COC(=O)c3ccccc3NC(=O)C(C)CC(=O)O)CCC(OC)C34C5CC6C(OC)CC(O)(C5C6OC)C(O)(C(OC)C23)C14 (stereo not shown) [Compound 14, shawurensine]
- TG level (TG secretion, lipid accumulation) (FFA-induced BRL cells [1]): had the effect of inhibiting the lipid accumulation (TG secretion)
- IC50 (BRL cells): > 500 µM

SMILES: CCN1CC2(COC(=O)c3ccccc3NC(=O)CC(C)C(=O)O)CCC(OC)C34C5CC6C(OC)CC(O)(C5C6OC)C(O)(C(OC)C23)C14 (stereo not shown) [Compound 15, delavaine B]
- TG level (TG secretion, lipid accumulation) (FFA-induced BRL cells [1]): had the effect of inhibiting the lipid accumulation (TG secretion)
- IC50 (BRL cells): > 500 µM

SMILES: CC(C)c1c(C(=O)Nc2ccccc2)c(-c2ccccc2)c(-c2ccc(F)cc2)n1CC[C@@H](O)C[C@@H](O)CC(=O)O [positive (ATC), Atorvastatin calcium, reference compound]
- IC50 (BRL cells; [5]): 88.4 µM
